Reference: the NIST ThermoML archive (doi:10.1016/j.jct.2015.04.003)
Numbers after ± are expanded uncertainties.

Test: Boiling temperature at pressure P
Details: 101.33 kPa; Liquid; Ebulliometric method (Recirculating still)

Row | Boiling temperature at pressure P [°C] | SMILES
1 | 205.10 ± 0.05 | COc1ccccc1O [2-methoxyphenol]
2 | 153.54 ± 0.05 | COc1ccccc1 [anisole]

Row | SMILES | Boiling temperature at pressure P [°C]
3 | CCCCOC(C)=O [butyl ethanoate] | 125.92 ± 0.05
